This note sets out measurements from PubChem BioAssay (NCI).

SMILES strings stand for the structures. Several values for one entry are separate records, joined by “and”; a condition that tells them apart may be missing. Identical values can stand only once.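 In this assay, cells in 96-well plates receive the compound at five concentrations for 48 hours. Endpoints are linearly interpolated between the surrounding concentrations. GI50 = concentration required for 50% inhibition of growth. Definition used: TGI = concentration required for complete inhibition of growth.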 Where only a bound is given, the exact number is not on record here.

Among the test systems are NCI-H460 lung; HS 578T breast; SK-MEL-28 melanoma; SF-539 CNS; MOLT-4 leukemia; SR leukemia; SNB-75 CNS; M14 melanoma; K-562 leukemia; SNB-19 CNS.
Common to all, as to assay: inhibition of tumour cell growth, NCI panel, 48 h

Consider `COC(=O)[C@@H](C)C[C@H](Cc1ccccc1)NC(=O)c1csc([C@@H](C[C@H](C(C)C)N(C)C(=O)[C@@H](NC(=O)[C@H]2CCCCN2C)C(C)C)OC(C)=O)n1`, for which the TGI with NCI-H460 lung was over 25000 nM; in the experiment on SK-MEL-28 melanoma, over 25000 nM; in the experiment with SF-539 CNS, 2.09 nM and < 2.5 nM; with MOLT-4 leukemia it was over 25000 nM; with SR leukemia it was over 25000 nM; in the experiment on SNB-75 CNS, over 25000 nM. The TGI is 0.531 nM in the experiment with M14 melanoma, over 25000 nM in the experiment on K-562 leukemia and over 25000 nM in the experiment on SNB-19 CNS. Further, the GI50 is 0.641 nM in the experiment with HS 578T breast; 2.5 nM with SK-MEL-28 melanoma; 0.294 nM and < 2.5 nM with SF-539 CNS; 0.5 nM and 2.5 nM with MOLT-4 leukemia; 0.134 nM in the experiment with M14 melanoma.

For the molecule `COC(=O)Nc1nc2ccc(Oc3ccc(NC(=O)Nc4cccc(Cl)c4)cc3)cc2[nH]1`, the GI50 was 802 nM in the experiment on NCI-H460 lung; 553 nM with HS 578T breast; 1840 nM in the experiment with SK-MEL-28 melanoma; 658 nM in the experiment on SF-539 CNS; 2350 nM in the experiment on MOLT-4 leukemia; 144 nM with SR leukemia. The GI50 was 689 nM in the experiment with SNB-75 CNS, 1250 nM with M14 melanoma, 175 nM with K-562 leukemia and 2610 nM in the experiment on SNB-19 CNS. Moreover, the TGI with NCI-H460 lung was 3860 nM; in the experiment on HS 578T breast, 9670 nM; in the experiment with SK-MEL-28 melanoma, 7410 nM; in the experiment on SF-539 CNS it was 6850 nM; in the experiment on MOLT-4 leukemia, 18800 nM; in the experiment with SR leukemia it was over 14300 nM. Moreover, the TGI with SNB-75 CNS is 8360 nM; in the experiment with M14 melanoma, over 11800 nM; in the experiment on K-562 leukemia, over 25000 nM; with SNB-19 CNS, over 25000 nM.

For `Nc1ccn([C@@H]2C=C(CO)[C@@H](O)[C@H]2O)c(=O)n1`, the TGI with NCI-H460 lung was 2270 nM and 9480 nM and 8820 nM; with SK-MEL-28 melanoma it was 500000 nM and > 625000 nM; in the experiment on SF-539 CNS, 266000 nM and > 625000 nM; in the experiment with SNB-75 CNS, 128000 nM and > 625000 nM; in the experiment with K-562 leukemia, 335000 nM; in the experiment with SNB-19 CNS it was 500000 nM and > 625000 nM. The GI50 in the experiment on HS 578T breast is 4560 nM; in the experiment with MOLT-4 leukemia it was 17.1 nM; in the experiment on SR leukemia, 50 nM; in the experiment with M14 melanoma it was 329 nM; with K-562 leukemia it was 18.9 nM.
